Reference: patent US8106168B2, “Metalloproteinase binding proteins” (Dyax Corp., priority 2005, dated 2012)

What was measured:
B16F1 melanoma tumors = experiment: B16F1 melanoma subcutaneous tumor growth; format: in vivo, mouse; conditions: M0038-F01 10, 1 or 0.1 mg/kg Q2d IP; doxorubicin 5 mg/kg weekly IP
Excerpt: B16F1 melanoma cells were implanted into Female C57/BL6 (CR) mice (4-6 Weeks old) mice by subcutaneous injection.

MDA-MB-231-GFP tumors = experiment: MDA-MB-231-GFP orthotopic breast tumor growth and metastasis
Protocol: Human breast cancer cells MDA-MB-231 cells transfected with green fluorescent protein (MDA-MB-231-GFP) were inoculated into the mammary fat pad of female BALB/c nu/nu mice with Matrigel. Animals were monitored for tumor growth, and at week 4-5 post tumor cell inoculation, animals with tumors of 30-50 mm^3 were selected, randomized and divided into experimental groups. […] Tumor volume was measured weekly, starting at week 5. Additionally, tissue samples of lung, liver, and spleen were taken to assess metastasis.
Animals were inoculated with MDA-MB-231-GFP cells as described above, then selected and randomized, and divided into experimental groups of 8 animals each. […] Tumor volume was measured weekly, starting at week 5.
Tumor tissue samples were collected on day 35 post-treatment for immunohistochemical analysis. Paraffin-embedded tissue samples were sectioned, stained with CD31 (Santa Cruz Biotechnology Inc., Santa Cruz, Calif., USA), Ki-67 (DAKO, Carpinteria, Calif., USA), MAPK, FAK, phosphoMAPK or phosphoFAK antibodies, visualized with biotinylated secondary antibodies using a VECTASTAIN® ABC (Vector Laboratories Inc., Burlingame, Calif., USA), and lightly counterstained with haemotoxylin.

[1] = test system: activation of pro-MMP-2 by MMP-14 in PMA-activated HT-1080 cells; experiment: Gelatin zymogram, pro-MMP-2 activation in HT-1080 cells; format: cell-based, human; conditions: gelatin zymography of conditioned media after 3 days; antibodies 10 μg/ml, GM6001 10 μM
Protocol: The ability of anti-MMP-14 IgGs to inhibit the activation of pro-MMP-2 by MMP-14 was examined by gelatin zymogram experiments performed with PMA-activated HT-1080 cells. M0033-H07 and M0038-F01 were tested for their ability to inhibit MMP-14 in this assay. HT1080 cells (well-known to express MMP-14 and MMP-2) were seeded at 5×10^5 cells/well at Day 0. […] HT-1080 cells cultured in the presence of 20 ng/ml of PMA were used as a positive control.
After 3 days of incubation, conditioned media were collected and gelatinolytic activities were analyzed by gelatin zymography as described previously (Maquoi et al, J Biol Chem 2000; 275:11368-78). When HT-1080 cells are activated with a phorbol ester, pro-MMP-2 is activated into MMP-2 (lane 1).

MDA-MB-435 GFP tumors = experiment: MDA-MB-435 GFP orthotopic breast tumor growth; format: in vivo, mouse
Excerpt: Fragments of MDA-MB-435 GFP (MDA-MB-435 cells expressing green fluorescent protein) tumors were transplanted by surgical orthotopic implantation (SOI) into the right second mammary gland. Treatment was started on day 15 after SOI when the volume of primary tumors reached about 85 mm^3.
Mice were sacrificed at day 61 after the start of the treatment and tumors (primary and metastases) were identified by fluorescent imaging. Additionally, primary tumors were excised and weighed. […] However, M0038-F01 was not effective in reducing lymph node or lung metastases in this experiment.

PC3 prostate tumors = experiment: PC3 prostate tumor growth; format: in vivo, mouse; conditions: M0038-F01 10, 1 or 0.1 mg/kg Q2d IP; taxotere 10 mg/kg weekly IP; A2 10 mg/kg Q2d
Excerpt: PC3 prostate cancer cells were implanted into male nude mice by subcutaneous injection.

[2] = immunostaining of tumor tissue, day 35
[3] = immunostaining of tumor tissue, day 35 post-treatment, image analysis

## COc1cccc2c1C(=O)c1c(O)c3c(c(O)c1C2=O)C[C@@](O)(C(=O)CO)C[C@@H]3O[C@H]1C[C@H](N)[C@H](O)[C@H](C)O1 [DOX, doxorubicin]
B16F1 melanoma tumors
  tumor growth: effective in reducing tumor growth
MDA-MB-231-GFP tumors; M0038-F01 10 mg/kg Q2d IP, DOX 5 mg/kg weekly IP
  metastases to spleen: reduced in DOX and M0038-F01 treated animals, but the difference was not statistically significant
MDA-MB-231-GFP tumors; M0038-F01 10 mg/kg Q2d IP, DOX 5 mg/kg weekly IP, compared to controls
  lung and liver metastases: statistically significant reduction
MDA-MB-231-GFP tumors; M0038-F01 or A2 10 mg/kg Q2d IP, DOX 5 mg/kg weekly IP, five weeks
  tumor growth (tumor volume): substantially inhibited
MDA-MB-231-GFP tumors; [2]
  CD31 and KI67 levels compared to vehicle and A2 controls: slightly reduced
  phospho-FAK level: 4±1.2 A.U.
  phospho-MAP kinase level: 5.8±1.9 A.U.
  total FAK level: 6±1 A.U.
  total MAP kinase level: 5.8±1.9 A.U.
MDA-MB-231-GFP tumors; [3]
  CD31: 4.08 ± 1.28
  Ki67: 5.2 ± 0.84

## CNC(=O)[C@H](Cc1c[nH]c2ccccc12)NC(=O)[C@@H](CC(=O)NO)CC(C)C [GM6001, reference compound]
[1]
  pro-MMP-2 activation by MMP-14: completely abolished
  pro-MMP-9 expression: paradoxically stimulated

## CC(=O)O[C@@]12CO[C@@H]1C[C@H](O)[C@@]1(C)C(=O)[C@H](O)C3=C(C)[C@@H](OC(=O)[C@H](O)[C@@H](NC(=O)OC(C)(C)C)c4ccccc4)C[C@@](O)([C@@H](OC(=O)c4ccccc4)[C@H]21)C3(C)C [Taxotere, taxotere, reference compound]
MDA-MB-435 GFP tumors; 10 mg/kg (F01 and A2 Q2d IP; taxotere QW×3 i.v.), excised primary tumor, day 61, * p≦0.05 compared to Control
  Tumor Mass (±SD): 0.59 ± 0.59*
MDA-MB-435 GFP tumors; M0038-F01 1 or 10 mg/kg Q2d IP, taxotere 10 mg/kg QW×3 i.v.
  tumor volume: reduction of tumor volume
PC3 prostate tumors
  tumor growth (tumor volume): extremely effective
